US10813914B2, “Composition for controlling microsporidia in fishes and method for controlling microsporidia in fishes using same” (MARUHA NICHIRO CORPORATION, priority 2016, dated 2020)
Marks after values point to notes of the source that are not given here.

What was measured:
[1] = tested on: microsporidian cyst (beko cyst), beko disease; test: Prevention test using albendazole (2), reduced dose (1-4); type: in vivo, “Mojako” (yellowtail larva); details: out of 100 fishes at 8 weeks after the start of administration
Method: Albendazole administration and a sampling test were carried out in the same procedure as in the above-described 1-3 except that the administration amount of albendazole was reduced to 5 or 10 mg/kg Bw. In the 10 mg/kg administration group, the number of (positive) individuals showing generation of the beko cyst was 0 out of 100 fishes of “Mojako” at 8 weeks after the start of administration. When the administration amount of albendazole was reduced to 5 mg/kg Bw, generation of the beko cyst was confirmed in 3 out of 100 fishes of “Mojako” at 8 weeks after the start of administration.

[2] = Weight, deaths and food intake of Mojako in prevention test 1-3; type: in vivo, “Mojako” (yellowtail larva); design: Weight of Mojako: unit: g; details: 20 mg/kg Bw oral, 6 times/week
Method: (§1) A preliminary test was carried out according to the following procedure:
(§2) Test number: Live 1000 fishes (each initial body weight: 7 g)
(§3) Administration amount: 20 mg/kg Bw (20 mg per kg of fish body weight)
(§4) Administration interval: 6 times/week

[3] = tested on: microsporidian cyst (beko cyst), beko disease; test: Prevention test using albendazole (4), two administration methods (1-6); type: in vivo, “Mojako” (yellowtail larva)
Method: A preliminary test was conducted using two administration methods including different administration amounts of albendazole per one operation and different administration intervals. The preliminary test was performed according to the following procedure:
as §2
(§5) Administration method: oral administration (feed together with spreading agent)
(§6) Drug used: albendazole (compound represented by the above-described formula (3))
Test group 1: 20 mg/kg Bw (20 mg per kg of fish body weight)
Test group 2: 40 mg/kg Bw (40 mg per kg of fish body weight)
Test group 1: 6 times/week (administered for 16 weeks)
Test group 2: 2 times/2 week (administered for 16 weeks)
A sampling test was carried out according to the same procedure as in the above-described 1-5.

[4] = tested on: microsporidian cyst (beko cyst), beko disease; test: Prevention test using albendazole (1) (1-3); type: in vivo, “Mojako” (yellowtail larva); details: 20 mg/kg Bw oral, 6 times/week
Method: 1-3. Prevention Test Using Albendazole (1)
as §1, §2, §5, §6, §3, §4
A sampling test was carried out according to the following procedure:
Every two weeks from the start of administration, each 20 fishes of “Mojako” were taken out from each test group (100 fishes of “Mojako” at 8 weeks after the start of administration) and each fish was cut into three pieces. It was then visually tested whether the microsporidian cyst (beko cyst) was found in the pieces. When the beko cyst was observed, it was judged as positive and the test results were accumulated. Regarding the beko cyst that could be confirmed with the naked eye, the number was confirmed and the average infection number per one fish was determined.

[5] = tested on: microsporidian cyst (beko cyst), beko disease; test: Prevention test using albendazole (3), 16 weeks administration (1-5); type: in vivo, “Mojako” (yellowtail larva); design: Negative: unit not given here
Method: Administration of albendazole was continued for 16 weeks and a sampling test was performed at 2 weeks, 4 weeks, 6 weeks, 8 weeks, 12 weeks and 16 weeks after the start of administration in the same procedure as in the above-described 1-3. The sampling test was carried out in the same procedure also at 4 weeks after the termination of administration of albendazole (20 weeks after the start of administration).

[6] = tested on: microsporidian cyst (beko cyst), beko disease; test: Prevention test using albendazole (5) in Kanpachi (1-7); type: in vivo, “Kanpachi” (great amberjack); details: 40 mg/kg Bw oral, 6 times/week
Method: A prevention test against the beko disease by administering albendazole was carried out using “Kanpachi” instead of “Mojako”.
A preliminary test was performed according to the following procedure:
Test number: Live 1000 fishes (each initial body weight: 50 g)
as §5, §6
Administration amount: 40 mg/kg Bw (40 mg per kg of fish body weight)
as §4
Sampling test procedure: same as in the above-described 1-1

[7] = tested on: microsporidia; details: culture test, Non-Patent Documents 3 to 7; cited from earlier work
[8] = tested on: beko cyst, beko disease; test: Treatment test of Mojako infected with beko disease using albendazole (2-1); type: in vivo, “Mojako” (yellowtail larva); details: 50 mg/kg Bw oral, 6 times/week
Method: 2-1: Test by Treating “Mojako” Infected with Beko Disease Using Albendazole
A treatment test was carried out according to the following procedure.
Test number: Live 1000 fishes (test samples showing apparent infection with beko disease according to visual test at the time of vaccine inoculation were selected and tested)
as §5, §6
Administration amount: 50 mg/kg Bw (50 mg per kg of fish body weight)
as §4
Samples of “Mojako” showing irregularities on the body surface with certainty of beko infection in visual test at the time of vaccine inoculation were selected and divided randomly into the control group and the test group.

[9] = 20 mg/kg Bw oral, 6 times/week, 2 Weeks
[10] = 20 mg/kg Bw oral, 6 times/week, 4 Weeks
[11] = 20 mg/kg Bw oral, 6 times/week, 6 Weeks
[12] = 20 mg/kg Bw oral, 6 times/week, 8 Weeks
[13] = 20 mg/kg Bw oral, 6 times/week, 12 Weeks
[14] = 20 mg/kg Bw oral, 6 times/week, 16 Weeks
[15] = 20 Weeks after start = 4 weeks after termination of 16-week administration

CCCSc1ccc2nc(NC(=O)OC)[nH]c2c1 [Albendazole, albendazole]
Number of (positive) individuals showing generation of the beko cyst ([1]; 5 mg/kg Bw oral): 3
Number of (positive) individuals showing generation of the beko cyst ([1]; 10 mg/kg Bw oral): 0
Increase in the number of deaths and decline in food intake with respect to the control group ([2]; administration period): not recognized
Weight of Mojako ([2]; 0 week): 7 ± 0.53
Weight of Mojako ([2]; 2 Weeks): 18 ± 2.38
Weight of Mojako ([2]; 4 Weeks): 29 ± 4.16
Weight of Mojako ([2]; 6 Weeks): 51 ± 7.13
Body weight compared with the control group ([2]; 8 Weeks): significant increase in body weight
Influence on the growth of Mojako ([2]; 8 Weeks): does not exert a harmful influence on the growth
Weight of Mojako ([2]; 8 Weeks): 73 ± 12.6
Positive fishes (beko cyst) / fishes sampled ([3]; Test group 1: 20 mg/kg Bw, 6 times/week for 16 weeks, 8 Weeks, p < 0.001): 0/50***
Positive fishes (beko cyst) / fishes sampled ([3]; Test group 1: 20 mg/kg Bw, 6 times/week for 16 weeks, 16 Weeks, p < 0.0001): 0/70****
Positive fishes (beko cyst) / fishes sampled ([3]; Test group 1: 20 mg/kg Bw, 6 times/week for 16 weeks, 24 Weeks (8 weeks after termination), 20 mg/kg): 16/50
Positive fishes (beko cyst) / fishes sampled ([3]; Test group 1: 20 mg/kg Bw, 6 times/week for 16 weeks, 24 Weeks (8 weeks after termination), listed as albendazole, 20 mg/kg): did not continue until 8 weeks after termination of administration
Positive fishes (beko cyst) / fishes sampled ([3]; Test group 1: 20 mg/kg Bw, 6 times/week for 16 weeks, at administration start time): 0/20
Positive fishes (beko cyst) / fishes sampled ([3]; Test group 2: 40 mg/kg Bw, 2 times/2 week for 16 weeks, 8 Weeks, p < 0.001): 0/50***
Positive fishes (beko cyst) / fishes sampled ([3]; Test group 2: 40 mg/kg Bw, 2 times/2 week for 16 weeks, 16 Weeks, p < 0.0001): 0/70****
Positive fishes (beko cyst) / fishes sampled ([3]; Test group 2: 40 mg/kg Bw, 2 times/2 week for 16 weeks, 24 Weeks (8 weeks after termination), p < 0.0001, 40 mg/kg): 1/50****
Positive fishes (beko cyst) / fishes sampled ([3]; Test group 2: 40 mg/kg Bw, 2 times/2 week for 16 weeks, 24 Weeks (8 weeks after termination), p < 0.0001, listed as albendazole, 40 mg/kg): significant suppression of generation of the beko cyst
Positive fishes (beko cyst) / fishes sampled ([3]; Test group 2: 40 mg/kg Bw, 2 times/2 week for 16 weeks, at administration start time): 0/20
Positive fishes (beko cyst) / fishes sampled ([4]; 2 week): 0/20
Positive fishes (beko cyst) / fishes sampled ([4]; 4 Weeks): 0/20
Positive fishes (beko cyst) / fishes sampled ([4]; 6 weeks, p < 0.05): 0/20*
Positive fishes (beko cyst) / fishes sampled ([4]; 8 weeks, p < 0.01): 0/100**
Positive fishes (beko cyst) / fishes sampled ([4]; Total of 2-8 weeks, p < 0.01): 0/160**
Positive fishes (beko cyst) / fishes sampled ([4]; Total of 2-8 weeks, p < 0.01, listed as albendazole): no positive was found
Infection rate [5, 9]: 0%
Negative [5, 9]: 20
Positive [5, 9]: 0
Infection rate [5, 10]: 0%
Negative [5, 10]: 20
Positive [5, 10]: 0
Negative [5, 11]: 20
Positive [5, 11]: 0
Infection rate ([5]; 20 mg/kg Bw oral, 6 times/week, 6 weeks, p < 0.05): 0%*
Negative [5, 12]: 100
Positive [5, 12]: 0
Infection rate ([5]; 20 mg/kg Bw oral, 6 times/week, 8 weeks, p < 0.01): 0%**
Negative [5, 13]: 40
Positive [5, 13]: 0
Infection rate ([5]; 20 mg/kg Bw oral, 6 times/week, 12 Weeks, p < 0.01): 0%**
Negative [5, 14]: 46
Positive [5, 14]: 0
Infection rate ([5]; 20 mg/kg Bw oral, 6 times/week, 16 Weeks, p < 0.01): 0%**
Negative [5, 15]: 30
Positive [5, 15]: 0
Infection rate ([5]; 20 Weeks after start = 4 weeks after termination of 16-week administration, p < 0.01): 0%**
Negative ([5]; Total until 16 weeks): 246
Positive ([5]; Total until 16 weeks): 0
Infection rate ([5]; Total until 16 weeks, p < 0.01): 0%**
Time the effect of preventing infection with microsporidia continues after administration was terminated ([5]; after 16 weeks of 20 mg/kg Bw oral, 6 times/week): at least 4 weeks
Positive fishes (beko cyst) / fishes sampled ([6]; 8 Weeks, p < 0.01, 40 mg/kg): 1/50**
Positive fishes (beko cyst) / fishes sampled ([6]; 8 Weeks, p < 0.01, listed as albendazole, 40 mg/kg): significantly suppressed generation of the beko cyst
Positive fishes (beko cyst) / fishes sampled ([6]; at administration start time): 1/20
Antimicrobial activity against microsporidia [7]: high antimicrobial activity
Infection rate ([8]; 10 Days): 60%
Number of positive fishes ([8]; 10 Days, 10 samples): 6
Number of positive fishes ([8]; 21 Days, 63 samples): 28
Infection rate ([8]; 21 Days, p < 0.01, 50 mg/kg): 44.4%**
Infection rate ([8]; 21 Days, p < 0.01, listed as albendazole, 50 mg/kg): 44.4%
Infection rate ([8]; at administration start time): 100%
Number of positive fishes ([8]; at administration start time, 10 samples): 10
